One data set deals with VASH1 mRNA in MOEC. Briefly: VASH1 mRNA after EZH2 gene silencing, real-time qRT-PCR. The class given is cell-based, mouse. Particulars: 72 hours after transfection. Here is the method:
Relative expression of EZH2 and VASH1 mRNA in HUVEC and MOEC cells was determined by real-time quantitative RT-PCR. Cells were seeded at 1.0×10^4 cells per well in 96-well plates in complete medium and incubated at 37° C. for 24 hours, and then in low-serum medium (0.5% serum) for 18 hours, minus EGF and VEGF supplements where appropriate. After washing with warm PBS, cells were treated in triplicate at 37° C. for six hours with EGF (25 ng/mL) and VEGF (50 ng/mL), each in fresh medium (lacking supplemental EGF or VEGF) with no serum, fresh complete medium plus 2% serum, and conditioned media. Relative expression of VASH1 mRNA in MOEC cells was determined by transfecting cells with EZH2 mouse siRNA. Samples were collected after 72 hours of transfection. Real-time quantitative RT-PCR was performed using 50 ng total RNA isolated from treated cells using the RNeasy Mini Kit (Qiagen). Relative expression values were obtained using the average of three reference genes and the 2^−ΔΔCT method as described previously, and normalized to control for percent fold changes (Donninger et al., 2004).
In general terms: In qPCR the cycle at which signal appears reflects the starting amount.

For data set [1], the system named is EZH2 promoter in EAhy926 endothelial cell line. Briefly: EZH2 promoter luciferase reporter assay. The class given is cell-based, human. Particulars: EAhy926, 6 hours, EGF 25 ng/mL, VEGF 50 ng/mL. How it is done: Relative activity of the EZH2 promoter in the EAhy926 cell line was determined by luciferase reporter assay. Cells were transfected in low-serum medium (0.5% serum) with the firefly luciferase plasmid, either empty vector (pGL3-Basic) or the EZH2 promoter construct vector (EZH2prom-pGL3-Basic), in 12-well plates using Effectene® Transfection Reagent from Qiagen (Valencia, Calif.). Cells were then maintained in low-serum medium for 18 hours, washed in warm 1× phosphate-buffered saline (PBS), and treated in triplicate at 37° C. for 6 hours. Treatments included recombinant human (rh) EGF (EGF; 25 ng/mL; Invitrogen) and rhVEGF165 (VEGF; 50 ng/mL; Peprotech, Rocky Hill, N.J.), each in fresh medium plus 0.5% serum, fresh complete medium plus 10% serum, and conditioned media from immortalized ovarian surface epithelium (105E120) and from papillary serous ovarian cancer cell lines (OVCA420 and SKOV3). Medium in control wells (pGL3-Basic transfectants) was not changed on the day of treatment. Following treatment, cells were washed briefly in cold 1×PBS and lysates were collected and processed using the Dual-Luciferase® Reporter Assay System (Promega Corp.). Firefly luciferase readings were averaged and normalized to pGL3-Basic control readings for percent fold changes.
(A reporter such as luciferase makes a cellular process visible.)

We go through three substances from US20160375050A1, “METHODS AND COMPOSITIONS INVOLVING CHITOSAN NANOPARTICLES” (The Board of Regents of the University of Texas System, priority 2007, published 2016).

On to “mouse EZH2 siRNA: Murine EZH2 siRNA, target 5′-GCACAAGTCATCCCGTTAATT-3′ (SEQ ID NO: 15), transfected in vitro (target site or template, no part of the molecule; listed as DNA, chemistry not given here)”, for which, in the data set on VASH1 mRNA in MOEC, the “increase in VASH1 mRNA compared to control siRNA treated cells” value was determined as 2.8 fold. With “EGF: recombinant human EGF, Invitrogen (NSDSECPLSHDGYCLHDGVCMYIEALDKYACNCVVGYIGERCQYRDLKWWELR; Epidermal growth factor; UniProt P01133 971-1023, looked up)”, the EZH2 promoter activity result in data set [1] is listed as “significant increase”. In the case of VEGF, the EZH2 promoter activity result in data set [1] was “significant increase”.
